This note sets out measurements from PubChem BioAssay (NCI).

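The compound was tested at five concentrations on cells cultured in 96-well plates, with a 48-hour exposure period. GI50 marks 50% less growth. TGI is the concentration that stops growth completely.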 Where only a bound is given, the exact number is not on record here.

Some test systems named below: SK-OV-3 ovarian; NCI-H226 lung; RPMI-8226 leukemia; MCF7 breast; SW-620 colon; SK-MEL-2 melanoma; PC-3 prostate; HS 578T breast; MDA-MB-435; SR leukemia.
Common to all, as to test: NCI tumour cell line growth inhibition, 48 h

Turning to `O=C1CCCCC2N(C(c3ccccc3)c3ccccc3)CC[C@@]12c1ccccc1` (mixture of isomers), the values for the TGI in the assay on SK-OV-3 ovarian, in the assay with NCI-H226 lung and in the assay with RPMI-8226 leukemia were > 10 µM, > 10 µM and 9.31 µM, respectively.
With `C=C(C)C(=O)OC1CCC2(C)C(CCC3C2CCC2(C)C(c4ccc(=O)oc4)CC4OC432)C1` (centres undefined), the TGI stood at 13.2 µM with MCF7 breast; 99.8 µM with SK-OV-3 ovarian; 48.1 µM with NCI-H226 lung; 20.1 µM in the assay with RPMI-8226 leukemia; 25.1 µM in the assay on SW-620 colon; 10.2 µM with SK-MEL-2 melanoma.
`Cc1cc(O)c(C(C)(C)C)cc1Sc1cc(C(C)(C)C)c(O)cc1C`: the GI50 was 2.61 µM in the assay with MCF7 breast; 2.77 µM in the assay with PC-3 prostate; 3.56 µM in the assay on SK-OV-3 ovarian; 2.97 µM in the assay with RPMI-8226 leukemia; 3.02 µM in the assay with HS 578T breast; 1.98 µM in the assay with MDA-MB-435. Also, the GI50 in the assay with SW-620 colon was 3.65 µM; in the assay with SR leukemia, 1.89 µM; in the assay on SK-MEL-2 melanoma, 2.46 µM. The TGI worked out at 9 µM in the assay with MCF7 breast; 10.6 µM in the assay with PC-3 prostate; 13.2 µM with SK-OV-3 ovarian; 15.8 µM with RPMI-8226 leukemia; 13.9 µM with HS 578T breast; 4.14 µM in the assay on MDA-MB-435. Further, the TGI in the assay with SW-620 colon came out at 13.7 µM; with SR leukemia, 7.23 µM; in the assay with SK-MEL-2 melanoma it was 4.51 µM.
On to `N#Cc1c(Cl)c2cc([N+](=O)[O-])ccc2n2c1nc1ccccc12`, for which the TGI in the assay with MCF7 breast was 4.56 µM; in the assay on PC-3 prostate it was 12.5 µM; in the assay on SK-OV-3 ovarian, 54.5 µM; with NCI-H226 lung, 34.3 µM; with RPMI-8226 leukemia it was > 22.5 µM; in the assay with HS 578T breast, 18 µM. In addition, the TGI turned out to be 4.65 µM in the assay with MDA-MB-435 and 36.4 µM in the assay on SK-MEL-2 melanoma.
As to `CCOC(=O)CN=C1NNS(=O)(=O)c2ccccc21`, the TGI in the assay on MCF7 breast, in the assay on PC-3 prostate, in the assay on SK-OV-3 ovarian, with NCI-H226 lung, in the assay with RPMI-8226 leukemia and with HS 578T breast was > 100 µM each time. Moreover, the TGI with MDA-MB-435, with SW-620 colon and in the assay on SR leukemia was > 100 µM each time.
As for `Clc1ccccc1/C=C/c1cscn1`, the TGI in the assay with SK-OV-3 ovarian, in the assay on RPMI-8226 leukemia, in the assay on SR leukemia and in the assay with SK-MEL-2 melanoma was > 100 µM each time.
On to `NCCCCC(N)C(=O)NCCNc1ccc(NCCNC(=O)C(N)CCCCN)c2c1C(=O)c1ccccc1C2=O` (centres undefined), for which the TGI in the assay with MCF7 breast, with PC-3 prostate, with SK-OV-3 ovarian, in the assay on NCI-H226 lung, in the assay on RPMI-8226 leukemia and with HS 578T breast was > 100 µM each time. Besides, the TGI in the assay on MDA-MB-435, in the assay with SW-620 colon, in the assay on SR leukemia and in the assay on SK-MEL-2 melanoma was > 100 µM throughout.
As for `O=C(O)Cc1cc(O)c(CC(=O)O)cc1O`, the TGI in the assay on PC-3 prostate, with NCI-H226 lung, in the assay on HS 578T breast, with MDA-MB-435, with SW-620 colon and in the assay on SR leukemia was > 100 µM each time. In addition, the TGI with SK-MEL-2 melanoma is > 100 µM.
Consider `CCOC(=O)C(O)(NC(=O)c1ccc(F)cc1)C(F)(F)F` (centres undefined), for which the TGI in the assay with MCF7 breast, in the assay with PC-3 prostate, in the assay on SK-OV-3 ovarian, with NCI-H226 lung, with RPMI-8226 leukemia and in the assay with HS 578T breast was > 100 µM in each case. Besides, the TGI in the assay with MDA-MB-435, in the assay on SW-620 colon, in the assay with SR leukemia and in the assay on SK-MEL-2 melanoma was > 100 µM each time.
On to `O=C1NN(C2=NNC3(C(=O)N2)c2ccccc2-c2ccccc23)C(c2ccccc2)=N/C1=C/c1ccc(O)cc1`, for which the GI50 in the assay on MCF7 breast was 39.4 µg/mL; with PC-3 prostate, 56.3 µg/mL; in the assay on SK-OV-3 ovarian it was 25.6 µg/mL; with RPMI-8226 leukemia, 70.6 µg/mL; in the assay on HS 578T breast, 50.4 µg/mL; in the assay with MDA-MB-435, 69.9 µg/mL. Also, the figures for the GI50 in the assay on SW-620 colon and in the assay with SR leukemia were 82.5 µg/mL and 59.7 µg/mL, respectively. Moreover, the TGI with MCF7 breast, in the assay on PC-3 prostate, with SK-OV-3 ovarian, in the assay with RPMI-8226 leukemia, with HS 578T breast and with MDA-MB-435 was > 150 µg/mL in each case. Moreover, the TGI in the assay on SW-620 colon and in the assay on SR leukemia was > 150 µg/mL in each case.
Consider `C=CC1(C)CCC2=C(CCC3C(C)(C(=O)OC)CCCC23C)C1=O` (centres undefined), for which the TGI came out at 34.4 µM in the assay on SK-OV-3 ovarian; 40.2 µM with NCI-H226 lung; 55.9 µM with RPMI-8226 leukemia; 33.5 µM in the assay on SW-620 colon; 42 µM in the assay on SR leukemia; 33.9 µM in the assay on SK-MEL-2 melanoma.
For `Cn1c(=O)c2[nH]c(CCCCC(=O)O)nc2n(C)c1=O`, the TGI in the assay on PC-3 prostate, in the assay on NCI-H226 lung, in the assay with HS 578T breast, in the assay with MDA-MB-435, with SW-620 colon and with SK-MEL-2 melanoma was > 100 µM in each case.
Consider `O=C(N/N=C\c1cccc(O)c1)c1ccncc1`, for which the TGI in the assay on PC-3 prostate, in the assay on HS 578T breast, in the assay with MDA-MB-435, with SW-620 colon, in the assay with SR leukemia and with SK-MEL-2 melanoma was > 100 µM throughout.
On to `Cc1nc2ccccc2n1C(=O)c1c(F)c(F)c(F)c(F)c1F`, for which the TGI with MCF7 breast was > 100 µM; in the assay with PC-3 prostate, 71.4 µM; in the assay with SK-OV-3 ovarian, 62 µM; with NCI-H226 lung it was 65.5 µM; with RPMI-8226 leukemia, 38.3 µM; in the assay with HS 578T breast, > 100 µM. For the same molecule, the TGI was 20 µM with MDA-MB-435, 49.8 µM in the assay on SW-620 colon, > 100 µM with SR leukemia and 46.6 µM in the assay with SK-MEL-2 melanoma.
